Consider eight compounds from patent US20050288300A1, “Methods of use fluoroquinolone compounds against maxillary sinus pathogenic bacteria” (LG Life Sciences Limited., priority 1999, published 2005).

Common to all, as to type: cell-based
A short description of assay [1]: MIC by agar dilution, maxillary sinus isolates. As to conditions: Streptococcus spp.: 5 Enterobacteriaceae, 6 non-fermentative Gram negative bacilli, 2 Neisseria meningitidis, 2 beta-haemolytic Streptococcus. The protocol:
(§1) Test strains were obtained from recent maxillary sinus aspiration. Identification of organisms was by standard methods (see, for example, Murray, P. R., et al. Manual of Clinical Microbiology. 6th ed. American Society of Microbiology 1995: 282-620).
(§2) Antimicrobial activity was tested against 250 selected isolates (Table 1).
(§3) The agar dilution method using replicate plating of the organisms onto a series of agar plates of increasing concentrations was used (see, for example, National Committee for Clinical Laboratory Standards. Methods for antimicrobial susceptibility tests for bacteria that growth aerobically. Approved standards M 7-A4. National Committee for Laboratory Standards, Villanova, Pa., 1997).
(§4) MICs were determined by using doubling dilutions of between 0.02-256 mg/L with an inoculum of 10^4 CFU in area of 5-8 mm.
(§5) Haemophilus Test Medium was used for Haemophilus spp. and Wilkins-Chalgren agar was used for anaerobes.
For orientation: In agar dilution the substance is mixed into plates at graded concentrations.

Assay [2] relates to Haemophilus influenzae. Put plainly: MIC by agar dilution, maxillary sinus isolates. As to conditions: H. influenzae (n = 45); for MIC / MIC50 / MIC90: Haemophilus influenzae; for MIC: 24 h. On the procedure: as §1, §2, §3, §4, §5
For assay [3], the system named is Staphylococcus aureus. Put plainly: MIC by agar dilution, maxillary sinus isolates. As to conditions: S. aureus (n = 31). The protocol:
as §1, §2, §3, §4, §5

Assay [4] has as its system Anaerobic strains. The assay can be described thus: MIC by agar dilution, maxillary sinus isolates. As to conditions: for MIC: 24 h, Anaerobic strains (n = 22): 12 Bacteroides spp., 7 Peptostreptococcus spp., 3 Bacteroides urealyticus. The protocol: as §1, §2, §3, §4, §5
The test system of assay [5] is Haemophilus parainfluenzae. Put plainly: MIC by agar dilution, maxillary sinus isolates. As to conditions: H. parainfluenzae (n = 10); for MIC: 24 h. On the procedure:
as §1, §2, §3, §4, §5

Assay [6] relates to Moraxella catarrhalis. The assay can be described thus: MIC by agar dilution, maxillary sinus isolates. As to conditions: M. catarrhalis (n = 45); for MIC / MIC50 / MIC90: Moraxella catarrhalis; for MIC: 24 h. The protocol:
as §1, §2, §3, §4, §5

In assay [7] the test system is Streptococcus pneumoniae. Put plainly: MIC by agar dilution, maxillary sinus isolates. As to conditions: S. pneumoniae (n = 85); for MIC / MIC50 / MIC90: Streptococcus pneumoniae; for MIC: 24 h. On the procedure: as §1, §2, §3, §4, §5
Assay [8] has as its system Streptococcus spp. Put plainly: MIC by agar dilution, maxillary sinus isolates. As to conditions: Streptococcus spp. (various other strains, 15). On the procedure:
as §1, §2, §3, §4, §5

Each structure is given as a SMILES string. ≈ marks a conversion by molar mass, not a printed value.

For `COc1c(N2C[C@@H]3CCCN[C@@H]3C2)c(F)cc2c(=O)c(C(=O)O)cn(C3CC3)c12` [Moxifloxacin], in assay [1], the “MIC Range” value was “≦0.02-0.5 mg/L”. In assay [2], the MIC fell in the range of 0.02 to 0.12 µg/mL (≈ 0.0498 to 0.299 µM) and the MIC50 was 0.13 µg/mL (≈ 0.324 µM). Moreover, the “MIC Range” value in assay [3] was in the range of 0.03 to 0.12 mg/L.
`CC1(C)S[C@@H]2[C@H](NC(=O)[C@H](N)c3ccc(O)cc3)C(=O)N2[C@H]1C(=O)O` [Amoxycillin]: the MIC50 in assay [4] (Anaerobic strains (n = 22)) is 0.25 µg/mL (≈ 0.684 µM); in assay [2], 0.25 µg/mL (≈ 0.684 µM); in assay [5], 0.06 µg/mL (≈ 0.164 µM); in assay [7] it was 0.03 µg/mL (≈ 0.0821 µM); in assay [8], 2 µg/mL (≈ 5.47 µM). Besides, the MIC90 is 2 µg/mL (≈ 5.47 µM) in assay [2]; 1 µg/mL (≈ 2.74 µM) in assay [5]; no less than 1 µg/mL in assay [3] (Staphylococcus aureus); 0.03 µg/mL (≈ 0.0821 µM) in assay [7]; 4 µg/mL (≈ 10.9 µM) in assay [8]. Moreover, the figures for the MIC in assay [5], in assay [6] and in assay [7] were 0.03 to 1 µg/mL (≈ 0.0821 to 2.74 µM), 0.02 to 16 µg/mL (≈ 0.0547 to 43.8 µM) and 0.02 to 1 µg/mL (≈ 0.0547 to 2.74 µM), respectively. Further, the “MIC 90%” value in assay [3] is listed as 1 mg/L (≈ 2.74 µM). Moreover, the “MIC Range” value in assay [3] fell in the range of 0.06 to 2 mg/L.
Consider `N[C@@H]1[C@H]2CN(c3nc4c(cc3F)c(=O)c(C(=O)O)cn4-c3ccc(F)cc3F)C[C@@H]12` [Trovafloxacin], for which the “MIC Range” value in assay [1] is listed as “≦0.02-0.5 mg/L”. Further, the MIC is 0.06 to 4 µg/mL (≈ 0.144 to 9.61 µM) in assay [4]; 0.02 to 0.06 µg/mL (≈ 0.048 to 0.144 µM) in assay [2]; 0.02 to 0.12 µg/mL (≈ 0.048 to 0.288 µM) in assay [5]; 0.02 to 0.06 µg/mL (≈ 0.048 to 0.144 µM) in assay [6]; 0.02 to 0.12 µg/mL (≈ 0.048 to 0.288 µM) in assay [7]. For the same compound, the MIC50 in assay [2] was no more than 0.02 µg/mL; in assay [5] it was 0.03 µg/mL (≈ 0.0721 µM); in assay [6], no more than 0.02 µg/mL; in assay [3] (Staphylococcus aureus), 0.03 µg/mL (≈ 0.0721 µM). The “MIC 90%” value in assay [3] stood at 0.03 mg/L (≈ 0.0721 µM).
Take `Cc1c(F)c(N2CCNC(C)C2)cc2c1c(=O)c(C(=O)O)cn2C1CC1` (centres unmarked) [Grepafloxacin]: the “MIC Range” value is “≦0.02-1 mg/L” in assay [1] and 0.06 to 0.25 mg/L in assay [3]. In addition, the MIC in assay [4] fell in the range of 0.25 to 8 µg/mL (≈ 0.696 to 22.3 µM); in assay [2], 0.02 to 0.03 µg/mL (≈ 0.0556 to 0.0835 µM); in assay [5], 0.02 to 0.12 µg/mL (≈ 0.0556 to 0.334 µM); in assay [6] it was 0.02 to 0.25 µg/mL (≈ 0.0556 to 0.696 µM); in assay [7], 0.03 to 0.5 µg/mL (≈ 0.0835 to 1.39 µM). Moreover, the MIC50 in assay [4] (Anaerobic strains (n = 22)) is 0.25 µg/mL (≈ 0.696 µM); in assay [2], no more than 0.02 µg/mL; in assay [6] it was no more than 0.02 µg/mL; in assay [3] (Staphylococcus aureus), 0.12 µg/mL (≈ 0.334 µM); in assay [7], 0.25 µg/mL (≈ 0.696 µM). In addition, the MIC90 was 8 µg/mL (≈ 22.3 µM) in assay [4] (Anaerobic strains (n = 22)); no more than 0.02 µg/mL in assay [2]; 0.1 µg/mL (≈ 0.278 µM) in assay [5]; no more than 0.02 µg/mL in assay [6]; no less than 0.25 µg/mL in assay [7]. Besides, the “MIC 90%” value in assay [2] is listed as “≦0.02 mg/L”; in assay [6], “≦0.02 mg/L”; in assay [7], 0.25 mg/L (≈ 0.696 µM).
Regarding `C[C@@H]1CN(c2c(F)c(N)c3c(=O)c(C(=O)O)cn(C4CC4)c3c2F)C[C@H](C)N1` [Sparfloxacin], the “MIC Range” value in assay [1] is reported as “≦0.02-0.5 mg/L”. This compound also came in with an MIC in assay [4] of 0.25 to 16 µg/mL (≈ 0.637 to 40.8 µM). In assay [2], the MIC lay in the range of 0.03 to 1 µg/mL (≈ 0.0765 to 2.55 µM). In assay [6], the MIC fell in the range of 0.02 to 1 µg/mL (≈ 0.051 to 2.55 µM) and the MIC50 is no more than 0.02 µg/mL. Moreover, in assay [7], the “MIC 90%” value was found to be 0.5 mg/L (≈ 1.27 µM), the MIC fell in the range of 0.03 to 0.5 µg/mL (≈ 0.0765 to 1.27 µM) and the MIC90 was no less than 0.25 µg/mL.
As for `CC1COc2c(N3CCN(C)CC3)c(F)cc3c(=O)c(C(=O)O)cn1c23` (centres unmarked) [Ofloxacin], the “MIC Range” value is 0.06 to 0.5 mg/L in assay [1] and 0.25 to 1 mg/L in assay [3]. Besides, the MIC in assay [4] fell in the range of 0.25 to 2 µg/mL (≈ 0.692 to 5.53 µM); in assay [2] it was 0.02 to 0.06 µg/mL (≈ 0.0553 to 0.166 µM); in assay [6] it was 0.02 to 0.25 µg/mL (≈ 0.0553 to 0.692 µM); in assay [7], 0.25 to 4 µg/mL (≈ 0.692 to 11.1 µM). The MIC50 in assay [4] (Anaerobic strains (n = 22)) and in assay [3] (Staphylococcus aureus) was 0.5 µg/mL (≈ 1.38 µM) in each case. Further, in assay [7], the “MIC 90%” value is given as 2 mg/L (≈ 5.53 µM).
With `CO/N=C1\CN(c2nc3c(cc2F)c(=O)c(C(=O)O)cn3C2CC2)CC1CN` (racemic) [Gemifloxacin, (R,S)-7-(3-aminomethyl-4-methoxyiminopyrrolidin-1-yl)-1-cyclopropyl-6-fluoro-4-oxo-1,4-dihydro-1,8-naphthyridine-3-carboxylic acid], the “MIC Range” value in assay [1] was “≦0.02-0.5 mg/L”; in assay [3] it was 0.03 to 1 mg/L. Besides, the MIC in assay [4] is 0.03 to 0.25 µg/mL (≈ 0.077 to 0.642 µM); in assay [2] it was 0.02 to 0.03 µg/mL (≈ 0.0514 to 0.077 µM); in assay [5], 0.02 to 0.12 µg/mL (≈ 0.0514 to 0.308 µM); in assay [6], 0.02 to 0.03 µg/mL (≈ 0.0514 to 0.077 µM); in assay [7], 0.02 to 0.06 µg/mL (≈ 0.0514 to 0.154 µM). The “MIC 90%” value in assay [2] and in assay [6] was “≦0.02 mg/L” each time. Besides, the MIC50 in assay [2] and in assay [6] was no more than 0.02 µg/mL throughout. Further, the MIC90 in assay [2] and in assay [6] was no more than 0.02 µg/mL in each case.
In the case of `C[C@H]1COc2c(N3CCN(C)CC3)c(F)cc3c(=O)c(C(=O)O)cn1c23` [Levofloxacin], the figures for the “MIC Range” value in assay [1] and in assay [3] were 0.03 to 0.25 mg/L and 0.12 to 0.5 mg/L, respectively. The MIC in assay [4] was in the range of 0.12 to 1 µg/mL (≈ 0.332 to 2.77 µM); in assay [2], 0.02 to 0.03 µg/mL (≈ 0.0553 to 0.083 µM); in assay [5], 0.03 to 0.25 µg/mL (≈ 0.083 to 0.692 µM); in assay [6] it was 0.02 to 0.12 µg/mL (≈ 0.0553 to 0.332 µM); in assay [7] it was 0.12 to 2 µg/mL (≈ 0.332 to 5.53 µM). In assay [7], the “MIC 90%” value was 1 mg/L (≈ 2.77 µM). Also, in assay [8], the MIC50 was found to be 0.12 µg/mL (≈ 0.332 µM).
